Residues, ends and D or L forms follow the SMILES beside them.
The compounds below were run on rat pituitary cells (assay: In-vitro assay of GH secretion from cultured rat pituitary cells (rGH measured by SPA)). Details: mixed rat anterior pituitary cell culture, 15 min stimulation at 37° C.
Type: cell-based
Experimental: An in-vitro assay using rat pituitary cells was established to study the effect of different GH secretagogues. The mixed pituitary cell culture was isolated from the anterior pituitary of male rats and cultured for 3 days. After washing the cells were stimulated for 15 min and the amount of GH secreted measured in the culture supernatant. The isolation of rat pituitary cells was a modification of Sartor, O. et al., Endocrinology 116, 1985, pp. 952-957. Pituitaries were discharged from 250 g male Sprague-Dawley rats after decapitation. The neurointermediate lobes were removed and the remainder was placed in Gey's medium supplemented with 0.25% glucose, 2× non essential amino acid and 1% BSA (isolation buffer). The glands were cut into small pieces and transferred to a flask containing 3 ml isolation buffer +11.5 mg trypsin and 1000 μg DNase and incubated for 35 min at 37° C., 95% O2 and 70 rotations per min. The fragments were washed 3 times by sedimentation in isolation buffer and aspirated into single cells by using a pasteur pipet. After dispersion the cells were filtered though a nylon filter (160 μm) to remove undigested tissue. The cells were washed 3 times with isolation buffer supplemented with trypsin inhibitor (0.75 mg/ml) and resuspended in culture medium (DMEM supplemented with 25 mM HEPES, 4mM Glutamine, 0.75% sodium bicarbonate, 2.5% FCS, 3% horse serum, 10% rat serum, 1 nM T3 and 40 μg/L dexamethasone) to a density of 2×10^5 cells/ml. The cells were seeded into microtiter plates, 200 μl/well and cultured for 3 days at 37° C. and 8% CO2. Following the culture period the cells were washed twice with stimulation buffer (HBSS supplemented with 1% BSA, 0.25% D-glucose and 25 mM HEPES) and preincubated for 1 hour. […] The buffer was collected and analyzed for rat growth hormone (rGH) content in a scintillation proximity assay (SPA) as follows (SPA, essentially as described in U.S. Pat. […] USA 82, 1985, pp. 8672-8676). The rGH assay was performed in OptiPlates (96-well plates) suitable for direct counting in a […] TopCount (β-scintillation counter). Assay protocol: 40 μl buffer 10 μl sample (incubated stimulation buffer) 50 μl ^125 I-rGH 50 μl rabbit anti-rGH 50 μl SPA reagent (anti-rabbit antibody bound to fluomicrospheres) The plates are sealed and placed on a plate shaker for 30 minutes followed by 10 hours of incubation, settling at 10°-15° C. and counting. In the SPA, rGH bound to an anti-GH rabbit antibody (primary antibody) is reacted with a second antibody bound to fluomicrospheres (SPA Type II RIA available from Amersham). Any radiolabelled rGH which is bound to the primary antibody will be immobilized on the fluomicrospheres which will then produce light. Measurement in a β-scintillation counter makes it possible to calculate the amount of radiolabelled rGH. The amount of radiolabelled rGH bound to the fluomicrospheres decreases with an increasing content of rGH in the sample.

| Compound | EC50 | Emax (% of GHRP-6) |
| --- | --- | --- |
| C[C@H](NC(=O)[C@@H](Cc1c[nH]c2ccccc12)NC(=O)[C@@H](N)Cc1c[nH]cn1)C(=O)N[C@@H](Cc1c[nH]c2ccccc12)C(=O)N[C@H](Cc1ccccc1)C(=O)N[C@@H](CCCCN)C(N)=O [H--His-D-Trp--Ala--Trp-D-Phe--Lys--NH2] (HELM PEPTIDE1{H.[dW].A.W.[dF].K.[am]}$$$$V2.0) | 2 nM | 100 % of GHRP-6 |
| C[C@H](NC(=O)[C@@H](Cc1ccc2ccccc2c1)NC(=O)[C@@H](C)N)C(=O)N[C@@H](Cc1c[nH]c2ccccc12)C(=O)N[C@H](Cc1ccccc1)C(=O)N[C@@H](CCCCN)C(N)=O [H-D-Ala-D-2Nal--Ala--Trp-D-Phe--Lys--NH2] (HELM PEPTIDE1{[dA].[O=C([C@@H](Cc1ccc2ccccc2c1)N[*:1])[*:2]].A.W.[dF].K.[am]}$$$$V2.0) | 1.8 nM | 85 % of GHRP-6 |
| (2S)-((3-(4-Imidazolyl)propionyl)-D-Phe--Ala--Trp-D-Phe.psi.(CH2 NH)-6-aminohexanol | 5 nM | 80 % of GHRP-6 |

Stronger by EC50, values ahead:

| EC50 | Compound | Emax (% of GHRP-6) |
| --- | --- | --- |
| 0.8 nM | C[C@@H](N)C(=O)N[C@H](Cc1ccc2ccccc2c1)C(=O)NCC(=O)N[C@@H](Cc1c[nH]c2ccccc12)C(=O)N[C@H](Cc1ccccc1)C(=O)N[C@@H](CCCCN)C(N)=O [H-DAla-D2Nal--Gly--Trp-DPhe--Lys--NH2] (HELM PEPTIDE1{[dA].[O=C([C@@H](Cc1ccc2ccccc2c1)N[*:1])[*:2]].G.W.[dF].K.[am]}$$$$V2.0) | 75 % of GHRP-6 |
| 0.5 nM | H-His-D-Trp-Ala-Trp-D-Phe.psi.(CH2 NH)Lys-NH2 [Example 2] | 100 % of GHRP-6 |

Reference: US5854211A, “Compounds with growth hormone releasing properties” (Novo Nordisk A/S, priority 1993, dated 1998)
